Key:
[1] = test system: PAPD5 variant 1; experiment: Y3H ULTImate YChemH screen; format: binding, Human; set-up: key to Confidence score: confidence score of A (scale A-D); conditions: prey PAPD5 variant 1; for # of fragments: cDNA Human placenta library, probe 5 μM (HBX129653), 10 μM (HBX129654)
Description: (§1) The two compounds were provided by Roche to HYBRIGENICS SERVICES SAS and tested for permeability and toxicity. Compounds were then screened against HYBRIGENICS's cDNA Human placenta library (PLA). The screens were carried out according to the optimized cell-to-cell mating protocol developed for Hybrigenics ULTImate Y2H™ using at different compound concentration (Table 6).
(§2) Clones obtained from the screen were picked in 96-well format and clones positive for growth under selective conditions (HIS+) were evaluated in a dependency assay using spot assays. Only clones that were able to grow on selective medium in the presence of the tagged compound were being picked up, processed (cell lysis, PCR, gene sequencing) and mapped for protein alignment using Blast analysis.
(§3) Both proteins PAPD5 (variant 1: NP_001035374; variant 2: NP_001035375) and PAPD7 (XP_005248291) were identified by a numerous number of fragments in the Y3H screen for both compounds (DHQ and THP) as described in the Materials and Method section. The identified proteins were ranked with a confidence score of A (scale A-D) by HYBRIGENICS (Table 10).

[2] = test system: PAPD5 variant 2; experiment: Y3H ULTImate YChemH screen; format: binding, Human; set-up: key to Confidence score: confidence score of A (scale A-D); conditions: prey PAPD5 variant 2; for # of fragments: cDNA Human placenta library, probe 5 μM (HBX129653), 10 μM (HBX129654)
Description: as §1, §2, §3

[3] = test system: PAPD7; experiment: Y3H ULTImate YChemH screen; format: binding, Human; set-up: key to Confidence score: confidence score of A (scale A-D); conditions: prey PAPD7; for # of fragments: cDNA Human placenta library, probe 5 μM (HBX129653), 10 μM (HBX129654); for Confidence score: ranked by HYBRIGENICS
Description: as §1, §2, §3

[4] = molecular target: T1, PAPD5 (Homo sapiens, UniProt Q8NDF8); experiment: Y3H ULTImate YChemH 1-by-1 validation (prey fragments, full length proteins); format: binding; conditions: PAPD5 var1 full length; FIG. 2
T1 construct: full length proteins for PAPD5 and PAPD7 were synthesized and used for 1-by-1 validation; expressed in transfected cells; host or cells: diploid yeast (YHGX13 with the prey plasmid mated to YPT6AT with the DHFR hook)
Description: (§4) In this validation step each one identified fragment prey and one chemical probe (HBX129653, HBX129654) is tested in a 1-by-1 experiment. The plasmids from 3 selected preys from the screening library were extracted from the yeast cells, amplified in E. coli and re-transformed into YHGX13 yeast cells. For each interaction, DO1, 1/10, 1/100 and 1/1000 of the diploid yeast culture expressing both hook and prey constructs were spotted on a selective medium without tryptophan, leucine and histidine and supplemented with the chemical probe and FK506. Interactions were tested in duplicate. One plate was used per chemical compound and concentration (DMSO, 5, 10 and 20 μM of HBX129653, 5, 10 and 20 μM of HBX129654, 5 μM of HBX24786 Trimethoprim (TMP) and 5 μM of HBX129634 (TMP-PEG5-OH)). Plates were incubated at 30° C. for 3 days.
(§5) The coding sequence of full-length PAPD5var1 (NM_001040284.2) and PAPD7varX1 (XM_005248234.2) were reconstituted from an N-terminal codon-optimized gene fragment (to remove high GC content) and commercially available clones of the C-terminal regions of the proteins and cloned in frame with the Gal4 Activation Domain (AD) into plasmid pP7 (AD-Prey), derived from the original pGADGH (Bartel et al., 1993 in Cellular interactions in development: A practical approach. ed. Hartley, D. A., Oxford University Press, Oxford, pp. 153-179). The constructs were checked by sequencing the entire inserts. For each prey, a mini-mating was carried out between YHGX13 (Y187 ade2-101::loxP-kanMX-loxP, mata) transformed with the prey plasmids and YPT6AT yeast cells (mata) transformed with the DHFR hook (Dihydrofolate reductase) to produce a diploid yeast culture. For each interaction, DO1, 1/10, 1/100 and 1/1000 of the diploid yeast culture expressing both hook and prey constructs were spotted on a selective medium without tryptophan, leucine and histidine and supplemented with the chemical probe and FK506. Interactions were tested in duplicate. One plate was used per chemical compound and concentration (DMSO, 5, 10 and 20 μM of HBX129653, 5, 10 and 20 μM of HBX129654, 5 μM of HBX24786 Trimethoprim (TMP) and 5 μM of HBX129634 (TMP-PEG5-OH)). Plates were incubated at 30° C. for 3 days.
(§6) In a first validation step three fragments identified in the first screen were selected for the 1-by-1 validation assay (as described in the Materials and Method section) and tested at three different concentrations ([…]) (Table 11).
(§7) In a second validation step, full length proteins for PAPD5 and PAPD7 were synthesized and used for 1-by-1 validation (as described in the Materials and Method section) with DHQ and THP (Table 12).

[5] = test system: PAPD5; experiment: as above; format: binding, Human; conditions: PAPD5 variant 1 and variant 2 fragments; already at the lowest tested concentration (5 of 5, 10, 20 μM); FIG. 1
Description: as §4, §5, §6, §7

[6] = molecular target: T2, PAPD7 (Homo sapiens, UniProt Q5XG87); experiment: as above; format: binding; conditions: PAPD7 full length; FIG. 2
T2 construct: full length proteins for PAPD5 and PAPD7 were synthesized and used for 1-by-1 validation; expressed in transfected cells; host or cells: diploid yeast (YHGX13 with the prey plasmid mated to YPT6AT with the DHFR hook)
Description: as §4, §5, §6, §7

[7] = test system: PAPD7; experiment: as above; format: binding, Human; conditions: PAPD7 fragment; already at the lowest tested concentration (5 of 5, 10, 20 μM); FIG. 1
Description: as §4, §5, §6, §7

[8] = molecular target: T1, PAPD5; experiment: Y3H ULTImate YChemH competition with free compound; format: binding; conditions: PAPD5 var1 fragment and full length; probe HBX129653 or HBX129654 1 μM; free compound 0-20 μM; FIG. 3-6
Description: (§8) The competition assays were performed on selective medium at 8 concentrations of the free compound (0, 0.25, 0.5, 1, 2, 5, 10 and 20 μM) and a consistent concentration for the tagged Y3H-compound (1 μM).

[9] = molecular target: T2, PAPD7; experiment: Y3H ULTImate YChemH competition with free compound; format: binding; conditions: PAPD7 varX1 fragment and full length; probe HBX129653 or HBX129654 1 μM; free compound 0-20 μM; FIG. 3-6
Description: as §8

T2 sequence (Q5XG87 whole entry): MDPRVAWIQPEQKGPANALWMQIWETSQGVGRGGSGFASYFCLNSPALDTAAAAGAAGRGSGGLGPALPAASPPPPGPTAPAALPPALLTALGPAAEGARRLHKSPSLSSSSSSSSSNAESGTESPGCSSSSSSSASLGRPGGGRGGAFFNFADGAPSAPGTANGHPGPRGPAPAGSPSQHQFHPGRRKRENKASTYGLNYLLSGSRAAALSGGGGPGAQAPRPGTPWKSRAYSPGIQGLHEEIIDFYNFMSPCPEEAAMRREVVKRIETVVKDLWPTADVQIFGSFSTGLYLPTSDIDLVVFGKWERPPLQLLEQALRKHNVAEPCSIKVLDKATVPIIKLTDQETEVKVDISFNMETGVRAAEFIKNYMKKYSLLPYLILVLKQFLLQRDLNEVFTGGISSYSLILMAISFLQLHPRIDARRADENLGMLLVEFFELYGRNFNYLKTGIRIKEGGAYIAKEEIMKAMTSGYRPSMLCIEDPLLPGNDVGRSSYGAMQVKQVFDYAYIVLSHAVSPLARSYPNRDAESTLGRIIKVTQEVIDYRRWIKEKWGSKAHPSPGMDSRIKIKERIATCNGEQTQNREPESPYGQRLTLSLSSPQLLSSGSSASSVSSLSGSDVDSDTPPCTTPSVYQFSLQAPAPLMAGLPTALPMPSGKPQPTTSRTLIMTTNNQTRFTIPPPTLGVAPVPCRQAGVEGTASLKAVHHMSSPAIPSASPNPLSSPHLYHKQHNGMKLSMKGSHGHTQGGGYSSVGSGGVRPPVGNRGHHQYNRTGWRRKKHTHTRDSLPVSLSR
T1 sequence (Q8NDF8 1-698 isoform Q8NDF8-5): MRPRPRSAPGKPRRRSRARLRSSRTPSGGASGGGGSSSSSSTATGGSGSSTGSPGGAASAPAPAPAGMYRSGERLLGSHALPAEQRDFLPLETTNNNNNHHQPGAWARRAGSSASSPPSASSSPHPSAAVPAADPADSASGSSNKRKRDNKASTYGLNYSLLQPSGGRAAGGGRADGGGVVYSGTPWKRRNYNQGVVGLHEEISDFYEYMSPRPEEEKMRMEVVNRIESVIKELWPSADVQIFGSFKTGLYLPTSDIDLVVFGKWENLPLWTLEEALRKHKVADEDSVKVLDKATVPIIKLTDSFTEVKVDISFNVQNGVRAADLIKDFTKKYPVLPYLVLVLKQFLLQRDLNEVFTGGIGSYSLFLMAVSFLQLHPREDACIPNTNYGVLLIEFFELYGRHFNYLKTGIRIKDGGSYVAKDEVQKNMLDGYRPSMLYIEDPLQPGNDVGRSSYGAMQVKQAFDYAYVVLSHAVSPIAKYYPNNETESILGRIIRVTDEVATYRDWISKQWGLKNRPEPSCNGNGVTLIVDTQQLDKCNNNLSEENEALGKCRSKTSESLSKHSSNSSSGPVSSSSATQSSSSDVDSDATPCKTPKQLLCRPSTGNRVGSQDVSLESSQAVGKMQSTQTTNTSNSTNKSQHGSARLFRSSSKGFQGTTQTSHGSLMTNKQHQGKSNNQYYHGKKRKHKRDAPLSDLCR

Compound | # of fragments [1] | Confidence score ([1]; ranked by HYBRIGENICS) | # of fragments [2] | # of fragments [3] | Confidence score [3] | Confidence score ([2]; ranked by HYBRIGENICS) | 1-by-1 validation, interaction with full length protein [4] | 1-by-1 validation of prey fragments as binders [5] | 1-by-1 validation, interaction with full length protein [6] | 1-by-1 validation of prey fragments as binders [7] | competition of free compound with the chemical probe [8] | competition of free compound with the chemical probe [9]
COc1cc2c(cc1OCCOCCOCCOCCOCCOCCOc1c(OC)cc(Cc3cnc(N)nc3N)cc1OC)C[C@@H](C(C)(C)C)n1cc(C(=O)O)c(=O)cc1-2 [HBX129653] | 28 | A | 1 | 12 | A |  |  |  |  |  |  | 
COc1cc(Cc2cnc(N)nc2N)cc(OC)c1OCCOCCOCCOCCOCCOCCOc1cc(N2CCc3nc(-c4ncccn4)ncc3[C@H]2C)cc(F)c1F [HBX129654] | 5 |  | 49 | 24 | A | A |  |  |  |  |  | 
COCCCOc1cc2c(cc1Cl)-c1cc(=O)c(C(=O)O)cn1[C@H](C(C)C)C2 [MOL653] |  |  |  |  |  |  | confirmed at the lowest tested concentration | validated as specific binders | confirmed at the lowest tested concentration | validated as specific binders | competition could be observed | competition could be observed
COc1cc(N2CCc3nc(-c4ncccn4)ncc3[C@H]2C)cc(F)c1F [MOL654] |  |  |  |  |  |  | confirmed at the lowest tested concentration | validated as specific binders | confirmed at the lowest tested concentration | validated as specific binders | competition could be observed | competition could be observed

Source: US11534452B2, “Nucleic acid molecules for reduction of PAPD5 or PAPD7 mRNA for treating hepatitis B infection” (HOFFMANN-LA ROCHE INC., priority 2016, dated 2022)
